This is an account of results in a melting point compilation (Tetko et al.; mined from patent text by program, amines drawn as free bases though some values may be those of a salt).

As for `CCOC(=O)C1(C(=O)OCC)Cc2ccc(OC)c(Cl)c2O1`, the melting point (usually the temperature, or range, at which the solid turns liquid) is 97 to 99 °C.

`CCOC(=O)c1cc(=O)c2c(OCCOc3ccc([N+](=O)[O-])cc3)cccc2o1`: the melting point was in the range of 158 to 161 °C.

Turning to `COc1cc(CCNC(=O)[C@@H](N)C(C)C)ccc1OCC#Cc1ccc(Cl)cc1`, the melting point lay in the range of 115 to 117 °C. Then `CCOC(=O)c1cc2n(c1)CNc1ccc(Br)cc1-2`, with 169 to 171 °C. The figure for `CCCS(=O)(=O)c1ccc(NS(=O)(=O)c2cccs2)c2[nH]c(C(=O)O)cc12` is 247 to 248 °C; for `Nc1cccc2c1C1CCCCN1C2=O` (stereo not drawn) it is 183 °C; for `CCOCc1nc2c(c(C)c(C)n3nnnc23)n1CCNC(=O)Nc1ccccc1` it is over 250 °C. Then `O=C(c1ccc(Cl)cc1)c1ccc2nc(Cl)cc(CCc3cccc(Cl)c3)c2c1`, with 180 °C; and `CC(CCC(=O)O)C(=O)NC1(C(=O)O)CCCC1` (stereo not drawn), with 170 to 172 °C; and `CC1Cc2cc3c(cc2C(C=Cc2cccc(Cl)c2)=NN1)OCO3` (stereo not drawn), with 114 to 117 °C. The molecule `CSc1ccc(C2=CC(=O)C3(CCOCC3)O2)cc1` displayed a melting point of 135 to 138 °C. Then `COc1ccc(-c2nc3cc(Cl)c(Cl)cc3[nH]2)cc1N`, with over 300 °C.

`Cn1ncnc1COc1nn2c(-c3cccnc3)nncc2c1-c1ccccc1F` yielded a melting point of 164 to 166 °C. With `COc1ccc2ccc3nc(C(=O)O)cn3c2c1`, the melting point is 272 to 273 °C.

`c1ccc(-c2nsc(N3CCN(c4ccccn4)CC3)n2)cc1`: the melting point lay in the range of 137 to 138 °C. Then `CC(C)c1ccc(NCc2ccc(Br)cc2)cc1`, with 30 °C.

Molecule `CCCc1cc(Cl)c2oc(C(=O)OCc3ccccc3)c(C)c2c1O` had a melting point of 119 to 120 °C. In turn, `N#CCCCc1ncccc1NS(=O)(=O)c1ccccc1` gave a melting point of 80 to 81 °C. The figure for `CC(C)(C)OC(=O)C(Nc1ccccc1)c1cccc(F)c1` (racemic) is 90 °C; for `O=C(O)CCCCCCC1=C(C=Cc2ccccc2)C(=O)CC1` it is 118 to 120 °C. Then `O=c1[nH]c2ccccc2n1CC1CCN(CC(O)COc2ccc(Cl)cc2)C1` (stereo not drawn), with 129 °C; and `CCOc1cc2oc(=O)c3c(c2cc1OCC)CCN(CCN1CC2CCC(CC2)C1)C3`, with 132 to 134 °C; and `Cc1oc(C=Cc2ccccc2Cl)nc1CC#N`, with 89 to 90 °C. The figure for `CC(C)C(=O)NC(=O)c1cccc(-c2noc(-c3ccccc3F)n2)c1` is 183 to 184 °C.

In turn, `CCCCc1nc2c(N)nc3ccccc3c2n1CCCCSc1ccc(F)cc1F` gave a melting point of 122 to 126 °C.

`CS(=O)C(C)(O)c1ccc(-c2ccccc2)cc1` (stereo not drawn) showed a melting point of 160 to 162 °C. Then `CCCC(=NOCC)C1=C(O)CC(c2c(C)c3c(c(C)c2Cl)CC(C)(C)C3)CC1=O` (stereo not drawn), with 93 to 94 °C; and `CCC=Cc1ncc(/C=C(\Cc2cccs2)c2nnn[nH]2)n1Cc1ccccc1Cl`, with 182 to 184 °C.

The molecule `O=C(SCC1C(=O)OCC1c1ccccc1)c1ccccc1F` (stereo not drawn) showed a melting point of 92 to 94 °C.

Molecule `NCCn1cnc(-c2ccccc2)c1-c1ccccc1` had a melting point of 96 to 98 °C. The figure for `Cc1ccc(-n2c(=O)c(C)nc3cccnc32)cc1` is 215 to 216 °C. In turn, `O=C1Cc2ccccc2C=Cc2cc(Br)ccc21` displayed a melting point of 121 to 123 °C. The figure for `Cn1ccc(C(=O)c2ccc(Cc3ccc(F)cc3)o2)c(O)c1=O` is 145 to 147 °C. Turning to `N#Cc1cccc(-c2ccc(O)c(-c3nc4cc(C#N)ccc4[nH]3)c2)c1`, the melting point was 348 to 350 °C. Then `O=C(O)CCNc1ccc(C(=O)c2ccccc2)cc1[N+](=O)[O-]`, with 170 to 175 °C; and `CC(=O)NC[C@H]1CN(c2cc(F)c(N3CCC(n4nnc(N5CCOCC5)n4)CC3)c(F)c2)C(=O)O1`, with 232 to 234 °C; and `CCCCC(=O)c1ccc(NC(C)=O)cc1O`, with 113 °C. As to `COCCOCCN1C(=O)C2(COc3cc4c(cc32)OCCO4)c2c(OC)ccc(OC)c21` (stereo not drawn), the melting point was in the range of 109 to 110 °C. The figure for `CC(C)(O)Cc1ccc(NC(=O)OCc2ccccc2)cc1` is 117 to 118 °C; for `CN(C)C=C(C(=O)C(=O)c1ccccc1C(=O)O)c1ccccc1` it is 153 °C; for `C(=Cc1nc(CNc2ccc(CCCCn3ccnn3)cc2)co1)c1ccc2c(c1)OCO2` it is 130 to 131 °C. The figure for `CCCn1c(COCC)nc2c(N)nc3ccc(OC(=O)N4CCOCC4)cc3c21` is 193 to 196 °C; for `CC(=O)OCC1=C(C(=O)O)N2C(=O)C(NC(=O)Cn3ccnc3S(C)=O)C2SC1` (stereo not drawn) it is 220 °C. As for `CC1CC(=O)NN=C1c1ccc(NC(=O)C2(C)CC2)cc1` (stereo not drawn), the melting point lay in the range of 235 to 237 °C. The figure for `CCCOc1ccc(-c2csc(-c3ccccc3Cl)c2CC(=O)N=C(N)N)cc1` is 111 to 113 °C; for `CCc1nc2c(C)cc(C)nc2n1Cc1ccc2c(c1)CCc1ccccc1N2Cc1nnn[nH]1` it is 177 to 179 °C. The figure for `O=C(OC(c1ccccc1)c1ccccc1)C(OC(=S)n1ccnc1)c1ccccc1` (stereo not drawn) is 109 to 110 °C; for `CCOc1ncnc(OCC)c1NC(=S)NC(=O)c1ccccc1` it is 162 °C. The figure for `CON(C)C(=O)c1cc(-n2c(Cl)nc(C(F)(F)F)cc2=O)c(F)cc1Cl` is 183 °C; for `O=C(O)Cc1ccc(Br)cc1C(=O)O` it is 210 to 213 °C. The molecule `Cc1cccc2sc(-n3nc(CCC(=O)N(C)O)cc3-c3ccsc3)nc12` displayed a melting point of 142 to 143 °C.

In the case of `COC(=O)c1cc(N)c(F)c(-c2ccc(Cl)cc2)n1`, the melting point was 177 to 179 °C. `CCCC(C)(Cl)Cn1ncc(OCc2ccc(CC)cc2)c(Cl)c1=O` (stereo not drawn) came in with a melting point of 81 to 83 °C. Then `O=c1c(Cl)c(OCc2ccc(F)cc2F)ccn1Cc1ccc2c(c1)CCN2`, with 137 to 139 °C; and `O=c1oc(OCCBr)c(Cl)c2ccccc12`, with 183 to 185 °C; and `COc1ccc(CN(C)CCCc2ccc(NC(=O)c3cccc4c(=O)c5cccc(F)c5[nH]c34)cc2)cc1OC`, with 158 °C.

`COc1cc(C(C)=O)c(OC)cc1C` showed a melting point of 75 to 77 °C.

On to `O=C(Nc1ccccc1)N1CCC(c2nn(-c3ccccc3)c3cc(F)ccc23)CC1`, for which the melting point fell in the range of 163 to 165 °C. The molecule `COc1ccc2c(n1)c(CCNC(C)=O)c1n2Cc2ccccc2-1` yielded a melting point of 96 to 97 °C. The figure for `COc1ccc(CN2C(=O)C(N)C(=O)N(CCC(C)C)c3ccccc32)cc1` (stereo not drawn) is 115 to 116 °C; for `CC1COC2(CCN(c3nc(=O)c4cc(C#N)cc([N+](=O)[O-])c4s3)CC2)O1` (stereo not drawn) it is 251 to 253 °C.

For the molecule `CNCCCn1c2ccc(O)cc2c2c3c(c(-c4ccccc4)cc21)C(=O)NC3=O`, the melting point is 265 to 268 °C. In turn, `COc1ccc(CCl)cc1OCc1nc(-c2ccccc2)oc1C` had a melting point of 129 to 130 °C.
